Assay results from US20240336617A1, “Substituted Bimane Compounds and Methods of Use Thereof” (THE TRUSTEES OF THE UNIVERSITY OF PENNSYLVANIA, priority 2023, published 2024).

What was measured:
[1] = pH measurements (absorption and emission); format: physicochemical; conditions: pH 2-11
Experimental: 10 mM stock solutions of 7h, 7j, and 7k in DMSO were individually diluted into ACN/PBS buffer (50:50 v/v) having different pH ranging from pH 2-11 with 25 μM (500 μL) of final concentration. For pH screening of 7h and 7j, PBS buffer solutions were prepared, then adjusted the pH 2, 4, and 7 by adding 6 M hydrochloric acid, pH 9 and 11 by adding 5 M sodium hydroxide. For pH screening of 7k, pH 4.4 and 7.4 were prepared by citric acid/phosphate buffer. Then, the absorption and fluorescence spectra were recorded by using Thermo Scientific Genesys 150 UV-Vis spectrometer, followed by PTI QuantaMaster™ 40 fluorescence spectrometer by excitation with maximum absorption wavelength.
pH measurements. 10 mM stock solutions of 5h and 5j in DMSO were individually diluted into ACN/PBS buffer (50:50 v/v) having different pH ranging from pH 2-11 with 25 µM (500 μL) of final concentration. For pH screening of 5h and 5j, PBS buffer solutions were prepared, then adjusted the pH 2, 4, and 7 by adding 6 M hydrochloric acid, pH 9 and 11 by adding 5 M sodium hydroxide. Then, we have recorded the absorption and fluorescence spectra by using Thermo Scientific Genesys 150 UV-Vis spectrometer, followed by PTI QuantaMaster™ 40 fluorescence spectrometer by excitation with maximum absorption wavelength.

tau fibrils = target: T1, tau fibrils (Homo sapiens, UniProt P10636); assay: Fluorescence and excitation spectra with tau fibrils; format: binding
T1 construct: made in house; host or cells: E. coli BL21
Experimental: (§1) Fluorescence measurements were performed using a PTI QuantaMaster™ 40 fluorescence spectrometer. Fluorescence spectra of 5 μM probes (concentrated stock solution prepared as 10 mM in DMSO) (7j, 7k, 7l, 7m, and ThT) in PBS buffer were measured in the absence and presence of 25 μM tau fibrils (stock solution 32 μM tau fibrils in PBS buffer).
as §1, with “Excitation spectral measurements” for “Fluorescence measurements”, “spectrometer. Excitation” for “spectrometer. Fluorescence”
as §1, with “QuantaMaster” for “QuantaMaster™”, “(5j, 5k,” for “(7j, 7k, 7l, 7m,”
Excitation spectral measurements were performed using a PTI QuantaMaster™ 40 fluorescence spectrometer. Excitation spectra of 5 μM probes (concentrated stock solution prepared as 10 mM in DMSO) (5j, 5k, and ThT) in PBS buffer were measured in the absence and presence of 25 μM tau fibrils (stock solution 32 μM tau fibrils in PBS buffer). […]

[2] = target: T2, αS fibrils in HEK cell lysate (Homo sapiens, UniProt P37840); assay: Selectivity of probes binding with αS fibrils in HEK cell lysate; conditions: 10 mg/mL total protein; probe 1 μM
T2 construct: intein-His6 (C, cleaved yes); made in house; host or cells: Escherichia coli BL21
Experimental: HEK 293T cells were grown on 150 mm dishes in sterile-filtered Dulbecco's modified Eagle's medium (Gibco, Thermo Fisher) supplemented with 10% fetal bovine serum (FBS), 1% penicillin/streptomycin (Mediatech, 10 mg/ml each). Cells were then washed with PBS and harvested in 5 mL PBS by scraping. Cells were pelleted by centrifugation at 1000 rpm for 5 min, and the supernatant was removed. The resulting cell pellet was re-suspended in 300-500 μL PBS buffer with 0.1% Triton X-100 (Bio-Rad) and 1×HALT protease inhibitor cocktail without EDTA (Thermo Fisher), then lysed by sonication for two 30 s cycles (cycle 1: 2 s on 2 s off, amp 50; cycle 2: 2 s on 2 s off, amp 55) using a QSonica Q700 sonicator fitted with a microtip. […]
Probes in PBS buffer (1 μM, the stock solution prepared as 10 mM in DMSO) were incubated with different αS fibril concentrations (0, 5, 10, 25 and 50 μM) in the presence of 10 mg/mL HEK cell lysate in Greiner 96 well flat black ½ area plates at 37° C. with shaking at 500 rpm for 15 min in an IKA MS3 control orbital shaker. After 15 min incubation, fluorescence intensity measurements were obtained with a Tecan Spark plate reader (Mannedorf, Switzerland) by excitation with λex/λem=424/570 nm for 7k, λex/λem=463/580 nm for 7l, λex/λem=484/620 nm for 7m, using the following parameters: excitation and emission bandwidth 5 nm, delay time 0 μs, integration time 40 μs. […]

[3] = target: bovine serum albumin (BSA) (Bos taurus, UniProt P02769); assay: Fluorescence in the presence of BSA; format: binding
αS fibrils = target: T3, αS fibrils (Homo sapiens, UniProt P37840); assay: Competition binding with ThT on αS fibrils
T3 construct: intein-His6 (C, cleaved yes); made in house; host or cells: Escherichia coli BL21

Sequence of bovine serum albumin (BSA) (P02769 25-607): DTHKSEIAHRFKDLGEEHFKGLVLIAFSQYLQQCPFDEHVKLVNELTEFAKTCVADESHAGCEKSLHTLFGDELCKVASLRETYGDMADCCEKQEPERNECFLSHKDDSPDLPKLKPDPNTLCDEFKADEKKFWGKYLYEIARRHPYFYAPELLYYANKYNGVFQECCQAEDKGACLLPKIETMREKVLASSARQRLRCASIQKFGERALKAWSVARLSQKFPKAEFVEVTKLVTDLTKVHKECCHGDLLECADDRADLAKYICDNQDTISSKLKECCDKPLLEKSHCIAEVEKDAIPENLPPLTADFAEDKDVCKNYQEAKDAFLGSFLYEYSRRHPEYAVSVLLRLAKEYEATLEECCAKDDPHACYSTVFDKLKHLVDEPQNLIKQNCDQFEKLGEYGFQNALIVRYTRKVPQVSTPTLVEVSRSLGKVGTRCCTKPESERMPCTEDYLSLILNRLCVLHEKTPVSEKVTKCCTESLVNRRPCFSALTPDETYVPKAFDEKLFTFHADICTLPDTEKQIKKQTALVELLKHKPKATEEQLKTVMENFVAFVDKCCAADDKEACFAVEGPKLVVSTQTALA
T1 sequence (P10636 1-412 isoform P10636-7): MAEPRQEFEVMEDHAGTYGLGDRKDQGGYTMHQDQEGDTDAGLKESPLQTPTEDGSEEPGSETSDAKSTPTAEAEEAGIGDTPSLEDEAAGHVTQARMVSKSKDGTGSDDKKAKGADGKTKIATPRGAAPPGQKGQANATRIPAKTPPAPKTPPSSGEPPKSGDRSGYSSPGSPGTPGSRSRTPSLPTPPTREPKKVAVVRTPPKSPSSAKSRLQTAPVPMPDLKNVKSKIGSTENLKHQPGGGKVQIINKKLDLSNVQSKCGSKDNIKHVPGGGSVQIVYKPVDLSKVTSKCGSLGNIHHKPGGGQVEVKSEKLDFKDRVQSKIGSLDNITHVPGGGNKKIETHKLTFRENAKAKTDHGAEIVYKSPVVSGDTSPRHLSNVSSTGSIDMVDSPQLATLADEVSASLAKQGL

Row | emission maximum bound to tau (tau fibrils) [nm] | detection of PFFs in cytosolic HEK cell lysate [2] | fluorescence turn on with BSA [3] | λmax (λem) with BSA ([3]; 10 μM probe, BSA 50 μM, excitation 418 nm) [nm] | competition with ThT on αS PFFs (αS fibrils) | SMILES | pH effects on absorption and emission [1]
1 |  |  |  |  |  | Cc1c(C)n2c(/C=C/c3ccc(N)cc3)c(C)c(=O)n2c1=O [Compound 7j, (E)-3-(4-aminostyryl)-2,5,6-trimethyl-1H,7H-pyrazolo[1,2-a]pyrazole-1,7-dione] | blue-shifted absorption and emission at pH 2
2 | 596 | higher fluorescence turn on | turn-on was possible | 555 |  | Cc1c(C)n2c(/C=C/c3ccc(N(C)C)cc3)c(C)c(=O)n2c1=O [Compound 7l, (E)-3-(4-(dimethylamino)styryl)-2,5,6-trimethyl-1H,7H-pyrazolo[1,2-a]pyrazole-1,7-dione] | 
3 |  | higher fluorescence turn on |  |  | higher affinity compared than ThT | Cc1c(C)n2c(/C=C/c3ccc(N4CCOCC4)cc3)c(C)c(=O)n2c1=O [Compound 7k, (E)-2,3,6-trimethyl-5-(4-morpholinostyryl)-1H,7H-pyrazolo[1,2-a]pyrazole-1,7-dione] | 
